Source: patent US12268670B2, “Combination of small molecule CD-47 inhibitors with other anti-cancer agents” (Aurigene Oncology Limited, priority 2018, dated 2025)
Marks after values point to notes of the source that are not given here.

Key:
[1] = system: luciferase expressing Raji (lymphoma cell line) cells; assay: Luciferase based phagocytosis assay (macrophages, combination with anti-human CD20 antibody); assay type: cell-based; settings: in combination with anti-human CD20 antibody, compared with compound alone; FIG. 1
Method: In vitro phagocytosis assay was performed to evaluate the ability of test item to enhance the phagocytic activity of macrophages. Monocytes were isolated from blood of healthy donor and cultured for 6-8 days using 10% RPMI (Roswell Park Memorial Institute) media and recombinant human M-CSF to differentiate into macrophages. Media was changed every alternate day. After differentiation, adherent macrophages were collected by gentle scraping and cultured in 10% RPMI overnight at a density of 0.1 million per well in 48 well tissue culture plate. Simultaneously, luciferase expressing Raji (lymphoma cell line) cells were cultured in 10% RPMI media with 100 μg/mL of hygromycin B in tissue culture flask. On the day of phagocytosis, macrophages were serum starved for 2 hours. 0.4 million luciferase expressing Raji cells per well were incubated with anti-human CD47 antibody or Mouse IgG1 K Isotype Control antibody or various concentrations of selected compounds of the present invention alone or in combination with anti-human CD20 antibody in serum free media for 30 min at 37° C. and added into respective well of the 48 well plate seeded with macrophages. […] Luminescence reading was taken using plate reader after transferring the content of each well to white plate. Intensity of luminescence indicated the extent of phagocytosis. […]

[2] = system: H929 (multiple myeloma cell line) cells; assay: Human macrophage phagocytosis assay in combination with bortezomib; assay type: cell-based; settings: H929 cells treated with 10 nM bortezomib for 48 hrs, compared with compound alone; FIG. 2
Method: In vitro phagocytosis assay was performed to evaluate the ability of test item to enhance the phagocytic activity of macrophages. Monocytes were isolated from blood of healthy donors and cultured for 6-8 days using complete RPMI (Roswell Park Memorial Institute) supplemented with 20 ng/mL recombinant human M-CSF to differentiate them into macrophages. Media was changed every alternate day. Simultaneously H929 cells were cultured in complete RPMI media and treated with 10 nM bortezomib for 48 hrs. Macrophages were starved for 2 hrs in serum free RPMI.CFSE stained, Bortezomib treated/untreated H929 (multiple myeloma cell line) cells were seeded at a density of 0.2×10^6 cells/well in 96-well low attachment plate and treated with anti-human CD47 purified B6H12 (5 μg/mL)/Mouse IgG1 K Isotype Control antibody (5 μg/mL)/different concentrations of selected compounds of the present invention in serum free media for 30 min at 37° C. Serum starved macrophages were added to H929 cells at a ratio of 1:4 (macrophages:H929 cells) and incubated for 2 hours at 37° C. Cells in each well were stained with anti-human CD11b APC for 30 minutes at 4° C. in dark followed by fixation and FACS analysis. Cells positive for FITC and APC were considered as H929 cells phagocytosed by macrophages. Data acquired using FACS verse was analysed using Flow Jo software.

[3] = system: A20 syngeneic lymphoma model; assay: Efficacy study in A20 syngeneic lymphoma model; assay type: in vivo, Balb/c mice
Text: Female Balb/c (BALB/cAnNTac) mice (6-8 weeks-old) bred in-house were used in this efficacy study in the A20 syngeneic lymphoma model. The animals were marked individually with tail marks and kept in cages that were identified by a cage card showing the study code, date of experimentation, sex and number of animals. During the experiment, the animals were weighed daily. A20 cell line (B-cell lymphoma line derived from a spontaneous reticulum cell neoplasm found in an old BALB/cAnN mouse) was procured from ATCC.
When the mean tumor volumes reached approximately 75 mm^3, the animals were randomized based on tumor volumes into four groups (G1 to G4) of twelve animals (N=12) each and dosed with vehicle, Compound 6, anti-mouse PD-L1 antibody and the combination of Compound 6 and anti-mouse PD-L1 antibody as mentioned below:
The treatment was continued for a period of 21 days, during which the overall efficacy and tolerability were evaluated based on tumor volume and body weight changes observed during the treatment period.
Individual animal body weights were recorded daily before the administration of Compound 6 throughout the experimental period. […] The tumor volumes were measured in all treatment group animals thrice a week (once every 2-3 days) using a digital Vernier callipers. From an ethical viewpoint, any treatment/control group with a mean tumor weight in excess of 10% of animal body weight were humanely sacrificed. As a measure of efficacy, the % T (treatment)/C(control) and % TGI (% Tumor growth inhibition) values were calculated. Graphs and statistical analysis were performed using GraphPad Prism®, Version 7.0. For analysis of tumor volume data, statistical comparison was done on Day 18 for all groups using One-way ANOVA with Dunnett's multiple comparison test. All analyses and comparisons was evaluated at the 5% (p<0.05) level. A “p” value less than 0.05 was considered as significant.

Structure (SMILES) | phagocytosis of lymphoma cells (luminescence intensity) [1] | phagocytosis of multiple myeloma cells (FACS, FITC and APC positive cells) [2] | % TGI ([3]; A20 tumor bearing Balb/c mice, Compound 6 30 mg/kg bid oral, anti-mouse PD-L1 antibody 200 μg/animal i.p. Day 1, 3, 6, 9, statistics on Day 18) | tolerability (clinical signs, mortality) ([3]; Compound 6 30 mg/kg bid, single agent or in combination with PD-L1 antibody, 21 days) | tumor growth inhibition (TGI) ([3]; at the end of treatment period (21 days), Compound 6 30 mg/kg, A20 tumor bearing mice)
N=C(N)NCCC[C@H](NC(=O)N1CCCC1C(=O)O)c1nc([C@@H](N)CCC(=O)O)no1 (stereo partly shown) [Compound 3] | Enhanced phagocytosis | Enhanced phagocytosis |  |  | 
NC(=O)CC[C@H](N)c1noc(CNC(=O)N2CCCC2C(=O)O)n1 (stereo partly shown) [Compound 6] | Enhanced phagocytosis | Enhanced phagocytosis | 72* % | well tolerated without any treatment related clinical signs and mortality | 72%
